One series has as its system E. cloacae (XDR CI 4172). The series is described as follows: microbe, parasite or virus in culture. Format: cell-based, Enterobacter cloacae. As to conditions: read-out: Minimum inhibitory concentration. The procedure: (§1) Antimicrobial assay was performed as described previously ([Panteleev et al., 2017b]). Briefly, mid-log phase bacterial test cultures were diluted with the 2× Mueller-Hinton broth (MH, Sigma) supplemented with 1.8% NaCl or without it so that to reach a final cell concentration of 10^6 CFU/ml. 50 μl aliquots of the obtained bacterial suspension were added to 50 μl of the peptide solutions serially diluted with 0.1% water solution of bovine serum albumin (BSA) in 96-well flat-bottom polystyrene microplates (Eppendorf #0030730011). After incubation at 37°C and 900 rpm for 24 h the minimum inhibitory concentrations (MIC) were determined as the lowest peptide concentrations that prevented growth of a test microorganism observed as visible turbidity. The results were expressed as the median values determined on the basis of at least three independent experiments performed in triplicate.

Series [1] has as its system E. coli XDR CI 1057 (26 days with synergy combination). As to conditions: Table 4, strain after 26 days with synergy combination (selection in MH broth with 0.9% NaCl). The procedure:
as §1, with “After incubation at 37°C and 900 rpm for 24 h the minimum inhibitory concentrations (MIC) were determined as the lowest peptide concentrations that prevented growth of a test microorganism observed as visible turbidity.” left out
(§2) Resistance induction experiments were performed using the previously described method ([Chernysh et al., 2015]) with some modifications. Briefly, on day 1, the overnight culture of wild-type bacteria was diluted with the 2× MH broth containing 1.8% NaCl so that to reach a final cell concentration of 10^6 CFU/ml. 50 μl aliquots of the obtained bacterial suspension were added to 50 μl of the peptide solutions serially diluted with 0.1% water solution of BSA in 96-well microplates (Eppendorf #0030730011). After incubation at 37°C and 900 rpm for 22 ± 2 h, MICs were determined as described above. For each subsequent daily transfer, 5 μl of the inoculum taken from the first well with a sub-inhibitory drug concentration were diluted with 1 ml of the fresh 2× MH broth supplemented with 1.8% NaCl. […] 26 repeated passages in the presence of antimicrobial agents were made for each bacterial strain during the experiment. […] Control serial passages in the absence of the agent were also performed.

Series [2] deals with E. coli XDR CI 1057 (26 days with polymyxin B). To be noted: Table 4, strain after 26 days with polymyxin B (selection in MH broth with 0.9% NaCl). The procedure:
as §1, with “After incubation at 37°C and 900 rpm for 24 h the minimum inhibitory concentrations (MIC) were determined as the lowest peptide concentrations that prevented growth of a test microorganism observed as visible turbidity.” left out
as §2

Another series relates to P. aeruginosa PAO1. Type of series: cell-based, Pseudomonas aeruginosa. As to conditions: PAO1, 24 h. As to the method:
as §1
The peptides were twofold serially diluted with 0.1% BSA in 96-well microplates (Eppendorf #0030730011). […] The results were expressed as the median values determined on the basis of three independent experiments performed in duplicate. […]

Another series concerns E. coli (XDR CI 1057). The series can be described thus: microbe, parasite or virus in culture. Format: cell-based, Escherichia coli. As to the method:
as §1

The test system of a further series is E. coli ML-35p. Type of series: cell-based, Escherichia coli. To be noted: Mueller-Hinton broth, 10^6 CFU/ml, 0.1% BSA, 37°C, 24 h, median of at least 3 experiments. The procedure: as §1
For series [3], the system named is A. baumannii (XDR CI 2675). Type of series: cell-based, Acinetobacter baumannii. To be noted: for Fractional inhibitory concentration (FICA, FICB): [X]/MICX; for Fractional inhibitory concentration (FICA, FICB) / MIC of the peptide when used together ([A], [B]): 0.9% NaCl; for MIC of the peptide when used together ([A], [B]): in the mix ChMAP-28 + mini-ChBac7.5Nα, other peptide at sub-inhibitory concentration; for MIC of the individual peptide (MICA, MICB): peptide used individually, medium with physiological NaCl (0.9%), median of 3 experiments in duplicate. The procedure:
as §1
The peptides were twofold serially diluted with 0.1% BSA in 96-well microplates (Eppendorf #0030730011). Then, the peptide solutions were mixed in the new test plate crosswise in such a way that the resulting checkerboard contained each combination of the cathelicidins in eight doubly increasing concentrations, with wells containing the highest concentration of each peptide at opposite corners ([Berditsch et al., 2015]). Then, the antimicrobial assay was performed as described in the previous section. […] The results were expressed as the median values determined on the basis of three independent experiments performed in duplicate. Estimation of synergistic effects of different cathelicidins was performed by calculating the fractional inhibitory concentration index (FICI) according to the equation: FICI = [À]/MICÀ + [B]/MICB, where MICÀ and MICB are the MICs of the individual substances, while [A] and [B] are the MICs of A and B when used together. A synergistic effect was defined at a FICI ≤ 0.5.

The subject of series [4] is human red blood cells (hRBC). The series is described as follows: Hemolysis (hemoglobin release assay). Format: cell-based. To be noted: 1.5 h incubation, hRBC of 3 independent donors. The procedure:
Hemolytic activity of the peptides was tested against the fresh suspension of human red blood cells (hRBC) using the hemoglobin release assay as described previously ([Panteleev et al., 2016]). Three experiments were performed with the hRBC from blood samples obtained from independent donors. The obtained data were represented as average means with standard deviations. The cytotoxicity of the peptides against HEK293T (transformed human embryonic kidney cells) and HEF (human embryonic fibroblasts) cell lines was studied using the colorimetric 3-(4,5-dimethylthiazol-2-yl)-2,5-diphenyltetrazolium bromide (MTT) dye reduction assay according to ([Panteleev and Ovchinnikova, 2017]). Three independent experiments were performed for each peptide. Half maximal inhibitory concentration (IC50) values were estimated as described previously ([Kuzmin et al., 2018]).

The test system of another series is E. coli XDR CI 1057. As to conditions: for MIC value at transfer “1”: MH broth with 0.9% NaCl, 37°C, legend covers both strains, values match XDR CI 1057. The procedure: Resistance induction experiments were performed using the previously described method ([Chernysh et al., 2015]) with some modifications. Briefly, on day 1, the overnight culture of wild-type bacteria was diluted with the 2× MH broth containing 1.8% NaCl so that to reach a final cell concentration of 10^6 CFU/ml. 50 μl aliquots of the obtained bacterial suspension were added to 50 μl of the peptide solutions serially diluted with 0.1% water solution of BSA in 96-well microplates (Eppendorf #0030730011). After incubation at 37°C and 900 rpm for 22 ± 2 h, MICs were determined as described above. For each subsequent daily transfer, 5 μl of the inoculum taken from the first well with a sub-inhibitory drug concentration were diluted with 1 ml of the fresh 2× MH broth supplemented with 1.8% NaCl. […] Control serial passages in the absence of the agent were also performed.

The mark [5] stands for this setting: 0.9% NaCl, Mueller-Hinton broth, 10^6 CFU/ml, 0.1% BSA, 37°C, 24 h, median of at least 3 experiments.
Setting [6] is: Table S2, XDR clinical isolate, NaCl content of medium not stated.
Setting [7] is: Without NaCl, Mueller-Hinton broth, 10^6 CFU/ml, 0.1% BSA, 37°C, 24 h, median of at least 3 experiments.
Setting [8] is: Table 4, strain at 0 days of selection experiment (selection in MH broth with 0.9% NaCl).

Read-outs that look alike come from different tables or passages of the source. No end group written: not given here.

Take GRFKRFRKKLKRLWHKVGPFVGPILHY [ChMAP-28]: the MIC in the series with E. cloacae (XDR CI 4172) (setting [5]) is 0.25 µM; in the series with E. cloacae (XDR CI 4172) (setting [6]) it was 0.25 µM; in the series on E. cloacae (XDR CI 4172) (setting [7]) it was 0.125 µM. The Minimum inhibitory concentration was 0.125 µM in series [1]; 0.25 µM in [2]; 0.125 µM in the series on E. coli (XDR CI 1057) (setting [8]); 0.125 µM with E. coli (XDR CI 1057) (setting [6]); 0.06 µM in the series on E. coli ML-35p (0.9% NaCl); 0.06 µM in the series on E. coli ML-35p (Without NaCl). The “Fractional inhibitory concentration (FICA, FICB)” value in the series with P. aeruginosa PAO1 is 0.5; in series [3], 0.125. Further, the “MIC of the peptide when used together ([A], [B])” value in series [3] was determined as 0.03 µM. The “MIC of the individual peptide (MICA, MICB)” value in [3] amounted to 0.25 µM. Further, the “half maximal hemolysis concentration (HC50)” value in series [4] (hemoglobin release) was roughly 100 µM. Moreover, the “MIC value at transfer “1”” value against E. coli XDR CI 1057 is 0.125 µM.

Regarding “RRLRPRRPRLPRPRPRPRPRPR [mini-ChBac7.5Nα]”, the results for the MIC with E. cloacae (XDR CI 4172) (setting [5]) and in the series with E. cloacae (XDR CI 4172) (setting [7]) were 4 µM and 1 µM, respectively. Further, the Minimum inhibitory concentration came to 8 µM in series [1]; 64 µM in series [2]; 8 µM in the series with E. coli (XDR CI 1057) (setting [8]); 4 µM in the series with E. coli ML-35p (0.9% NaCl); 0.5 µM with E. coli ML-35p (Without NaCl). Also, the “MIC of the individual peptide (MICA, MICB)” value (in the series with P. aeruginosa PAO1; in series [3]) was greater than 32 µM in each case. In addition, the “Fractional inhibitory concentration (FICA, FICB)” value in series [3] is recorded as 0.008. Also, the “MIC of the peptide when used together ([A], [B])” value in [3] amounted to 0.5 µM. Also, the “red blood cells lysed” value in series [4] (at the concentration of 100 μM) was determined as 2%. Moreover, the “MIC value at transfer “1”” value against E. coli XDR CI 1057 stood at 8 µM. The “MIC value after selection” value against E. coli XDR CI 1057 (after eight passages, highest concentration tested 256 μM, MH broth, 0.9% NaCl) is greater than 256 µM.

The values are drawn from PMC6284057, “Combined Antibacterial Effects of Goat Cathelicidins With Different Mechanisms of Action” (Frontiers in Microbiology, 2018).
